Laboratory results as given in patent US20250002477A1, “BENZIMIDAZOLE COMPOUND OR SALT THEREOF, CANINE FILARIASIS CONTROL AGENT CONTAINING SAME, AND METHOD OF USE THEREOF” (NIHON NOHYAKU CO., LTD., priority 2021, published 2025).

System: L-1 stage larvae of canine filariae (Dirofilaria immitis)
Test: Impact evaluation test on larvae motility of canine filariae
Conditions: final concentration of 50 ppm, 3 days, corrected for DMSO solution alone

SMILES: Clc1ccc(CCc2cn(-c3nc4ccccc4[nH]3)cn2)c(Cl)c1 [Compound 1-1, 2-(4-(2-(2,4-dichlorophenyl)ethyl)-1H-imidazol-1-yl)benzimidazole]
- activity level (corrected motility impediment rate): A (the corrected motility impediment rate is 100%)
